Measurements from PMC10120312 (Cell Insight, 2022).

Assays:
[1] = tested on: EV-A71; experiment: CPE assay against EV-A71 in RD cells; format: cell-based, Enterovirus 71 (EV-A71); conditions: Enterovirus A, EVA71, RD, read-out: EC50 against EV-A71
[2] = tested on: EV-A71; experiment: Viral entry assay; format: cell-based; conditions: qRT-PCR; PTC-209HBr 3.2 μM, enviroxime 0.32 μM, pirodavir 0.64 μM; MOI 30
[3] = biological target: EV-A71 VP1 (Human enterovirus 71, UniProt Q66478); format: binding; conditions: MST, 500 nM VP1-EGFP
[4] = biological target: VP1 and hSCARB2 (Human enterovirus 71, UniProt Q66478); experiment: IF assay of colocalization between VP1 and hSCARB2; format: cell-based; conditions: RD cells, vs untreated cells
[5] = tested on: EV-A71; experiment: Viral binding assay; format: cell-based; conditions: qRT-PCR; PTC-209HBr 3.2 μM, enviroxime 0.32 μM, pirodavir 0.64 μM; MOI 30

Chain of EV-A71 VP1 (Q66478 566-862): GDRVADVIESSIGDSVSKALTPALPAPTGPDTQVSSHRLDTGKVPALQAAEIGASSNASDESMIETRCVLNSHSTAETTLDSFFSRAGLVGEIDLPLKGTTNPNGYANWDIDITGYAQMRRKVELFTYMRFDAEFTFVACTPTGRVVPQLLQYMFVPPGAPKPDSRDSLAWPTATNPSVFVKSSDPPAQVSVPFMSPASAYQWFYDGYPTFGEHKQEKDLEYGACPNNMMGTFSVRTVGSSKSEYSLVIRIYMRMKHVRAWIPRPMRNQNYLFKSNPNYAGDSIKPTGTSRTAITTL
Chain of VP1 and hSCARB2 (Q66478 324-565): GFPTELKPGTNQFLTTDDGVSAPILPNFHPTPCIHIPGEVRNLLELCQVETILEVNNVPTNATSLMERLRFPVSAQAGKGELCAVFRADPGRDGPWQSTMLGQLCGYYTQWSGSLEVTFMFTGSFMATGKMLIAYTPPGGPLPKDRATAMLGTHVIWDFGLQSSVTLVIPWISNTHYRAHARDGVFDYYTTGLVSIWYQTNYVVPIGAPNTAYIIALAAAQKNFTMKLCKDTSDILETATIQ
Chain of VP1 and hSCARB2 (Q66478 566-862): as the sequence (Q66478 566-862) above
Chain of VP1 and hSCARB2 (Q66478 70-323): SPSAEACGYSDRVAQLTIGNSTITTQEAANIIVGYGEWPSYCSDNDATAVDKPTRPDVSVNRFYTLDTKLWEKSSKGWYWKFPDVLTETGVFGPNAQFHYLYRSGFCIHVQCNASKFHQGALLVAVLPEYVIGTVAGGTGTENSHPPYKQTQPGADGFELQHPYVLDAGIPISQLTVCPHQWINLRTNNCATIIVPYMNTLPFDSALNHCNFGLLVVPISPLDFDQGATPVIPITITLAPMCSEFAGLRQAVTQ
Chain of VP1 and hSCARB2 (Q66478 2-69): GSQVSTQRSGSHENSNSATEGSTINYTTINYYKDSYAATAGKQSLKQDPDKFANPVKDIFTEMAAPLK

Row | Structure (SMILES) | EC50 [1] [nM] | Inhibition of EV-A71 entry (RNA level) [2] | Kd VP1 [3] | Colocalization between VP1 and hSCARB2 in EV-A71-infected cells [4] | Inhibition of EV-A71 binding (RNA level) [5]
1 | CC(C)S(=O)(=O)n1c(N)nc2ccc(/C(=N/O)c3ccccc3)cc21 [Enviroxime, enviroxime] | 178 | little inhibited | low binding affinity | decreased | little inhibited
2 | CCOC(=O)c1ccc(OCCC2CCN(c3ccc(C)nn3)CC2)cc1 [Pirodavir, pirodavir] | 5250 | but not entry | – | – | dramatically inhibit
